Data reported in patent publication US20260070945A1, “MACROCYCLIC IMMUNOMODULATORS” (Bristol-Myers Squibb Company, priority 2022, published 2026).
*1 amine or outer side, *2 acyl side, *3 side chain or, on linkers, in order; H or OH if unused. Where a SMILES comes first, the peptide text is derived from it. Bridges are numbered along the chain shown (N, C = ends). [ ]: non-standard residue; d: D form. The star is where a group is joined. ξ: configuration not given here. Phe(4-COOH) = N[C@@H](Cc1ccc(C(=O)O)cc1)C(=O)O; Bip = N[C@@H](Cc1ccc(-c2ccccc2)cc1)C(=O)O; γGlu = O=C(O)[C@H](CCC(=O)[*:2])N[*:1]; hArg = N=C(N)NCCCC[C@H](N)C(=O)O; 4Pal = N[C@@H](Cc1ccncc1)C(=O)O; Cha = N[C@@H](CC1CCCCC1)C(=O)O; Ile(3ξ) = CCC(C)[C@H](N)C(=O)O; Thr(3ξ) = CC(O)[C@H](N)C(=O)O; NMeNle = CCCC[C@H](NC)C(=O)O; 12Ado = NCCCCCCCCCCCC(=O)O; dDab = NCC[C@@H](N)C(=O)O; β3hS = N[C@@H](CO)CC(=O)O; Carboxymethyl = O=C(O)C*; NMeA = CN[C@@H](C)C(=O)O; Orn = NCCC[C@H](N)C(=O)O; Aun = NCCCCCCCCCCC(=O)O; Dab = NCC[C@H](N)C(=O)O; AEEA = NCCOCCOCC(=O)O

What follows are molecules tested against T1, PD-1/PD-L1 interaction (PE-labeled human PD-L1-Ig binding to Jurkat cell line over-expressing human PD-1) (Homo sapiens, UniProt Q15116) (assay: Jurkat-PD-1 Cell Binding High-Content Screening Assay (CBA)). Conditions: Jurkat-hPD-1 cells, PE-labeled PD-L1-Ig 20 nM final; read-out: Jurkat HPD1 PDL1 IC50.
T1 construct: expressed in transfected cells; host or cells: Jurkat
T1 sequence (Q15116 25-288): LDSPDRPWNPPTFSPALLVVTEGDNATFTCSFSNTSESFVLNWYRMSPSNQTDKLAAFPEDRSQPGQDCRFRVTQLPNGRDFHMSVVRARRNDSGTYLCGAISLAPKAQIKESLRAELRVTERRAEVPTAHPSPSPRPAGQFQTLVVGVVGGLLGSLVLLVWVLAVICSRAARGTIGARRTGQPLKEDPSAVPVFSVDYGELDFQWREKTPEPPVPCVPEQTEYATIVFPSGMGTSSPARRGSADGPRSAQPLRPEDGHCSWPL
In short: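 Binding of 20 nM (final) PE-tagged PD-L1-Ig to compound-pretreated Jurkat-hPD-1 cells was measured by high-content imaging after 1 h. Pretreatment ran 2 h at 37 °C in DMEM with 10% fetal calf serum.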

IC50 [nM]	Structure (SMILES)
21.9	CCC(C)[C@@H]1NC(=O)[C@H](Cc2ccc(-c3ccccc3)cc2)NC(=O)[C@H](C(C)C)NC(=O)[C@H](Cc2c[nH]c3ccccc23)NC(=O)[C@H](CC(=O)O)NC(=O)[C@H](Cc2ccncc2)NC(=O)[C@H](Cc2ccc(OCC(=O)O)cc2)NC(=O)CSC[C@@H](C(=O)N[C@@H](CCCCN)C(=O)NCCOCCOCC(=O)NCCCCCCCCCCC(=O)O)NC(=O)[C@H](C(C)O)NC(=O)[C@H](C(C)C)NC(=O)[C@H](CC2CCCCC2)NC(=O)[C@H](CCN)NC(=O)[C@@H](CC(C)C)NC(=O)[C@H](C)N(C)C1=O (stereo partly drawn) [Example 2107] ({CH2CO}-Y(Carboxymethyl)[4Pal]DWV[Bip][Ile(3ξ)][NMeA][dL][Dab][Cha]V[Thr(3ξ)]CK[AEEA][Aun]-OH; thioether N-14)
24.4	CC(C)C[C@H]1NC(=O)[C@H](C)N(C)C(=O)[C@H](CCC(=O)O)NC(=O)[C@H](Cc2ccc(-c3ccccc3)cc2)NC(=O)[C@H](C(C)C)NC(=O)[C@H](Cc2c[nH]c3ccccc23)NC(=O)[C@H](CC(=O)O)NC(=O)[C@H](Cc2ccc(C(=O)O)cc2)NC(=O)[C@H](Cc2ccc(OCC(=O)O)cc2)NC(=O)CSC[C@@H](C(=O)N[C@@H](CCCCN)C(=O)NCCOCCOCC(=O)NCCCCCCCCCCC(=O)O)NC(=O)[C@H](C(C)O)NC(=O)[C@H](C(C)C)NC(=O)[C@H](CC2CCCCC2)NC(=O)[C@H](CCN)NC1=O (stereo partly drawn) [Example 2108] ({CH2CO}-Y(Carboxymethyl)[Phe(4-COOH)]DWV[Bip]E[NMeA][dL][Dab][Cha]V[Thr(3ξ)]CK[AEEA][Aun]-OH; thioether N-14)
10.8	CC(C)C[C@H]1NC(=O)[C@H](C)N(C)C(=O)[C@H](C(C)C)NC(=O)[C@H](Cc2ccc(-c3ccccc3)cc2)NC(=O)[C@H](C(C)C)NC(=O)[C@H](Cc2c[nH]c3ccccc23)NC(=O)[C@H](CC(=O)O)NC(=O)[C@H](Cc2ccc(C(=O)O)cc2)NC(=O)[C@H](Cc2ccc(OCC(=O)O)cc2)NC(=O)CSC[C@@H](C(=O)N[C@@H](CCCCN)C(=O)NCCOCCOCC(=O)NCCCCCCCCCCC(=O)O)NC(=O)[C@H](C(C)O)NC(=O)[C@H](C(C)C)NC(=O)[C@H](CC2CCCCC2)NC(=O)[C@H](CCN)NC1=O (stereo partly drawn) [Example 2109] ({CH2CO}-Y(Carboxymethyl)[Phe(4-COOH)]DWV[Bip]V[NMeA][dL][Dab][Cha]V[Thr(3ξ)]CK[AEEA][Aun]-OH; thioether N-14)
17	CC(C)C[C@H]1NC(=O)[C@H](C)N(C)C(=O)[C@H](C(C)C)NC(=O)[C@H](Cc2ccc(-c3ccccc3)cc2)NC(=O)[C@H](C(C)C)NC(=O)[C@H](Cc2c[nH]c3ccccc23)NC(=O)[C@H](CC(=O)O)NC(=O)[C@H](Cc2ccc(C(=O)O)cc2)NC(=O)[C@H](Cc2ccc(OCC(=O)O)cc2)NC(=O)CSC[C@@H](C(=O)N[C@@H](CCCN)C(=O)NCCOCCOCC(=O)NCCCCCCCCCCC(=O)O)NC(=O)[C@H](CO)NC(=O)[C@H](C(C)C)NC(=O)[C@H](CC2CCCCC2)NC(=O)[C@H](CCN)NC1=O [Example 2110] ({CH2CO}-Y(Carboxymethyl)[Phe(4-COOH)]DWV[Bip]V[NMeA][dL][Dab][Cha]VSC[Orn][AEEA][Aun]-OH; thioether N-14)
29.9	CC(C)C[C@H]1NC(=O)[C@H](C)N(C)C(=O)[C@H](C(C)C)NC(=O)[C@H](Cc2ccc(-c3ccccc3)cc2)NC(=O)[C@H](C(C)C)NC(=O)[C@H](Cc2c[nH]c3ccccc23)NC(=O)[C@H](CC(=O)O)NC(=O)[C@H](CCCCNC(=N)N)NC(=O)[C@H](Cc2ccc(OCC(=O)O)cc2)NC(=O)CSC[C@@H](C(=O)N[C@@H](CCCN)C(=O)NCCOCCOCC(=O)NCCCCCCCCCCC(=O)O)NC(=O)[C@H](C(C)O)NC(=O)[C@H](C(C)C)NC(=O)[C@H](CC2CCCCC2)NC(=O)[C@H](CCN)NC1=O (stereo partly drawn) [Example 2111] ({CH2CO}-Y(Carboxymethyl)[hArg]DWV[Bip]V[NMeA][dL][Dab][Cha]V[Thr(3ξ)]C[Orn][AEEA][Aun]-OH; thioether N-14)
38.5	CC(C)C[C@H]1NC(=O)[C@H](C)N(C)C(=O)[C@H](C(C)C)NC(=O)[C@H](Cc2ccc(-c3ccccc3)cc2)NC(=O)[C@H](C(C)C)NC(=O)[C@H](Cc2c[nH]c3ccccc23)NC(=O)[C@H](CC(=O)O)NC(=O)[C@H](Cc2ccc(C(=O)O)cc2)NC(=O)[C@H](Cc2ccc(OCC(=O)O)cc2)NC(=O)CSC[C@@H](C(=O)N[C@@H](CCCCN)C(=O)NCCOCCOCC(=O)NCCCCCCCCCCC(=O)O)NC(=O)[C@H](CO)NC(=O)[C@H](C(C)C)NC(=O)[C@H](CC2CCCCC2)NC(=O)[C@@H](CCN)NC1=O [Example 2112] ({CH2CO}-Y(Carboxymethyl)[Phe(4-COOH)]DWV[Bip]V[NMeA][dL][dDab][Cha]VSCK[AEEA][Aun]-OH; thioether N-14)
102	CCCC[C@H]1C(=O)N[C@H](CC(C)C)C(=O)N[C@@H](CCN)C(=O)N[C@@H](CC2CCCCC2)C(=O)N[C@@H](C(C)C)C(=O)N[C@@H](C(C)O)C(=O)N[C@H](C(=O)N[C@@H](CCCN)C(=O)NCCOCCOCC(=O)NCCCCCCCCCCC(=O)O)CSCC(=O)N[C@@H](Cc2ccncc2)C(=O)N[C@@H](Cc2ccc(OCC(=O)O)cc2)C(=O)N[C@@H](CC(=O)O)C(=O)N[C@@H](Cc2c[nH]c3ccccc23)C(=O)N[C@@H](C(C)C)C(=O)N[C@@H](Cc2ccc(-c3ccccc3)cc2)C(=O)N[C@@H](CC(C)C)C(=O)N1C (stereo partly drawn) [Example 2114] ({CH2CO}-[4Pal]Y(Carboxymethyl)DWV[Bip]L[NMeNle][dL][Dab][Cha]V[Thr(3ξ)]C[Orn][AEEA][Aun]-OH; thioether N-14)
269	CCCC[C@H]1C(=O)N[C@H](CC(C)C)C(=O)N[C@@H](CCN)C(=O)N[C@@H](CC2CCCCC2)C(=O)N[C@@H](C(C)C)C(=O)N[C@@H](C(C)O)C(=O)N[C@H](C(=O)N[C@@H](CCCCN)C(=O)NCCOCCOCC(=O)NCCCCCCCCCCC(=O)O)CSCC(=O)N[C@@H](Cc2ccncc2)C(=O)N[C@@H](Cc2ccc(OCC(=O)O)cc2)C(=O)N[C@@H](CC(=O)O)C(=O)N[C@@H](Cc2c[nH]c3ccccc23)C(=O)N[C@@H](C(C)C)C(=O)N[C@@H](Cc2ccc(-c3ccccc3)cc2)C(=O)N[C@@H](CC(C)C)C(=O)N1C (stereo partly drawn) [Example 2115] ({CH2CO}-[4Pal]Y(Carboxymethyl)DWV[Bip]L[NMeNle][dL][Dab][Cha]V[Thr(3ξ)]CK[AEEA][Aun]-OH; thioether N-14)
63.7	CC(C)C[C@H]1NC(=O)[C@H](C)N(C)C(=O)[C@H](C(C)C)NC(=O)[C@H](Cc2ccc(-c3ccccc3)cc2)NC(=O)[C@H](C(C)C)NC(=O)[C@H](Cc2c[nH]c3ccccc23)NC(=O)[C@H](CC(=O)O)NC(=O)[C@H](Cc2ccncc2)NC(=O)[C@H](Cc2ccc(OCC(=O)O)cc2)NC(=O)CSC[C@@H](C(=O)N[C@@H](CCCCN)C(=O)NCCCCCCCCCCC(=O)O)NC(=O)C[C@H](CO)NC(=O)[C@H](C(C)C)NC(=O)[C@H](CC2CCCCC2)NC(=O)[C@H](CCN)NC1=O [Example 2116] ({CH2CO}-Y(Carboxymethyl)[4Pal]DWV[Bip]V[NMeA][dL][Dab][Cha]V[β3hS]CK[Aun]-OH; thioether N-14)
30.3	CC(C)C[C@H]1NC(=O)[C@H](C)N(C)C(=O)[C@H](C(C)C)NC(=O)[C@H](Cc2ccc(-c3ccccc3)cc2)NC(=O)[C@H](C(C)C)NC(=O)[C@H](Cc2c[nH]c3ccccc23)NC(=O)[C@H](CC(=O)O)NC(=O)[C@H](Cc2ccncc2)NC(=O)[C@H](Cc2ccc(OCC(=O)O)cc2)NC(=O)CSC[C@@H](C(=O)N[C@@H](CCN)C(=O)NCCOCCOCC(=O)NCCCCCCCCCCCC(=O)O)NC(=O)[C@H](CO)NC(=O)[C@H](C(C)C)NC(=O)[C@H](CC2CCCCC2)NC(=O)[C@H](CCN)NC1=O [Example 2117] ({CH2CO}-Y(Carboxymethyl)[4Pal]DWV[Bip]V[NMeA][dL][Dab][Cha]VSC[Dab][AEEA][12Ado]-OH; thioether N-14)
14.3	CC(C)C[C@H]1NC(=O)[C@H](C)N(C)C(=O)[C@H](C(C)C)NC(=O)[C@H](Cc2ccc(-c3ccccc3)cc2)NC(=O)[C@H](C(C)C)NC(=O)[C@H](Cc2c[nH]c3ccccc23)NC(=O)[C@H](CC(=O)O)NC(=O)[C@H](Cc2ccc(OCC(=O)O)cc2)NC(=O)[C@H](Cc2ccncc2)NC(=O)CSC[C@@H](C(=O)N[C@@H](CCN)C(=O)NCCOCCOCC(=O)N[C@@H](CCC(=O)NCCOCCOCC(=O)N[C@@H](CCCCN)C(=O)NCCCCCCCCCCCC(=O)O)C(=O)O)NC(=O)[C@H](CO)NC(=O)[C@H](C(C)C)NC(=O)[C@H](CC2CCCCC2)NC(=O)[C@H](CCN)NC1=O [Example 2118] ({CH2CO}-[4Pal]Y(Carboxymethyl)DWV[Bip]V[NMeA][dL][Dab][Cha]VSC[Dab][AEEA][γGlu][AEEA]K[12Ado]-OH; thioether N-14)
17.6	CC(C)C[C@@H]1NC(=O)[C@H](Cc2c[nH]c3ccccc23)NC(=O)[C@H](CC(=O)O)NC(=O)[C@H](Cc2ccc(OCC(=O)O)cc2)NC(=O)[C@H](CCCCNC(=N)N)NC(=O)CSC[C@@H](C(=O)NCC(=O)N[C@@H](CCN)C(=O)NCCCCCCCCCCC(=O)O)NC(=O)[C@H](CO)NC(=O)[C@H](C(C)C)NC(=O)[C@H](CC2CCCCC2)NC(=O)[C@H](CCN)NC(=O)[C@@H](CC(C)C)NC(=O)[C@H](C)N(C)C(=O)[C@H](C(C)C)NC(=O)[C@H](Cc2ccc(-c3ccccc3)cc2)NC1=O [Example 2120] ({CH2CO}-[hArg]Y(Carboxymethyl)DWL[Bip]V[NMeA][dL][Dab][Cha]VSCG[Dab][Aun]-OH; thioether N-14)
19.4	CC(C)C[C@@H]1NC(=O)[C@H](Cc2c[nH]c3ccccc23)NC(=O)[C@H](CC(=O)O)NC(=O)[C@H](Cc2ccc(OCC(=O)O)cc2)NC(=O)[C@H](CCCCNC(=N)N)NC(=O)CSC[C@@H](C(=O)NCC(=O)N[C@@H](CCCN)C(=O)NCCCCCCCCCCCC(=O)O)NC(=O)[C@H](CO)NC(=O)[C@H](C(C)C)NC(=O)[C@H](CC2CCCCC2)NC(=O)[C@H](CCN)NC(=O)[C@@H](CC(C)C)NC(=O)[C@H](C)N(C)C(=O)[C@H](C(C)C)NC(=O)[C@H](Cc2ccc(-c3ccccc3)cc2)NC1=O [Example 2121] ({CH2CO}-[hArg]Y(Carboxymethyl)DWL[Bip]V[NMeA][dL][Dab][Cha]VSCG[Orn][12Ado]-OH; thioether N-14)
